Measured values: PubChem BioAssay (NCI)
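Compound exposure: 48 hours, 5 concentrations, 96-well plates. At the GI50, growth is halved. TGI denotes the concentration required for complete inhibition of growth.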

Experiments:
Test in all cases: NCI tumour cell line growth inhibition, 48 h
MCF7 breast = test system: MCF7 breast
UACC-257 melanoma = test system: UACC-257 melanoma
RPMI-8226 leukemia = test system: RPMI-8226 leukemia
NCI/ADR-RES ovarian = test system: NCI/ADR-RES ovarian
HOP-92 NSCLC = test system: HOP-92 NSCLC
TK-10 renal = test system: TK-10 renal
M14 melanoma = test system: M14 melanoma
T-47D breast = test system: T-47D breast
RXF 393 renal = test system: RXF 393 renal
SK-MEL-5 melanoma = test system: SK-MEL-5 melanoma
SNB-19 CNS = test system: SNB-19 CNS
COLO 205 colon = test system: COLO 205 colon
HCT-15 colon = test system: HCT-15 colon
OVCAR-3 ovarian = test system: OVCAR-3 ovarian
KM12 colon = test system: KM12 colon
OVCAR-4 ovarian = test system: OVCAR-4 ovarian
NCI-H522 lung = test system: NCI-H522 lung
NCI-H460 lung = test system: NCI-H460 lung
K-562 leukemia = test system: K-562 leukemia
UO-31 renal = test system: UO-31 renal
HCT-116 colon = test system: HCT-116 colon
SF-295 CNS = test system: SF-295 CNS
PC-3 prostate = test system: PC-3 prostate
SN12C renal = test system: SN12C renal
OVCAR-5 ovarian = test system: OVCAR-5 ovarian
SR leukemia = test system: SR leukemia
MDA-MB-231 breast = test system: MDA-MB-231 breast
SW-620 colon = test system: SW-620 colon
U251 CNS = test system: U251 CNS
SK-OV-3 ovarian = test system: SK-OV-3 ovarian
CCRF-CEM leukemia = test system: CCRF-CEM leukemia
NCI-H226 lung = test system: NCI-H226 lung
HCC-2998 colon = test system: HCC-2998 colon
LOX IMVI melanoma = test system: LOX IMVI melanoma
SF-539 CNS = test system: SF-539 CNS
UACC-62 melanoma = test system: UACC-62 melanoma
SK-MEL-2 melanoma = test system: SK-MEL-2 melanoma
DU-145 prostate = test system: DU-145 prostate
HL-60(TB) leukemia = test system: HL-60(TB) leukemia
786-0 renal = test system: 786-0 renal
NCI-H23 lung = test system: NCI-H23 lung
HOP-62 NSCLC = test system: HOP-62 NSCLC
HT29 colon = test system: HT29 colon
A498 renal = test system: A498 renal
IGROV1 ovarian = test system: IGROV1 ovarian
SNB-75 CNS = test system: SNB-75 CNS
A549 NSCLC = test system: A549 NSCLC
SK-MEL-28 melanoma = test system: SK-MEL-28 melanoma
OVCAR-8 ovarian = test system: OVCAR-8 ovarian
MOLT-4 leukemia = test system: MOLT-4 leukemia
CAKI-1 renal = test system: CAKI-1 renal
EKVX NSCLC = test system: EKVX NSCLC
HS 578T breast = test system: HS 578T breast
SF-268 CNS = test system: SF-268 CNS
ACHN renal = test system: ACHN renal
MDA-MB-435 = test system: MDA-MB-435
MALME-3M melanoma = test system: MALME-3M melanoma

## CC/C=C\C[C@H](O)C/C=C1/C(=O)C=C[C@@H]1C/C=C\CCCC(=O)OCCS(=O)(=O)c1ccccc1
MCF7 breast
  GI50: 2.39 µM
  TGI: 18.6 µM
UACC-257 melanoma
  GI50: 4.54 µM
  TGI: 17.3 µM
RPMI-8226 leukemia
  GI50: 2.7 µM
  TGI: 8.25 µM
NCI/ADR-RES ovarian
  GI50: 3.43 µM
  TGI: 20.5 µM
HOP-92 NSCLC
  GI50: 6.87 µM
  TGI: 19.4 µM
TK-10 renal
  GI50: 5.58 µM
  TGI: 17.3 µM
M14 melanoma
  GI50: 3.67 µM
  TGI: 13.7 µM
T-47D breast
  GI50: 3.76 µM
  TGI: 18.7 µM
RXF 393 renal
  GI50: 2.75 µM
  TGI: 6.47 µM
SK-MEL-5 melanoma
  GI50: 1.99 µM
  TGI: 4.06 µM
SNB-19 CNS
  GI50: 5.06 µM
  TGI: 19.4 µM
COLO 205 colon
  GI50: 2.85 µM
  TGI: 6.89 µM
HCT-15 colon
  GI50: 2.84 µM
  TGI: 11.4 µM
OVCAR-3 ovarian
  GI50: 3.19 µM
  TGI: 12 µM
KM12 colon
  GI50: 2.09 µM
  TGI: 6.05 µM
OVCAR-4 ovarian
  GI50: 4.05 µM
  TGI: 16.9 µM
NCI-H522 lung
  GI50: 1.76 µM
  TGI: 4.13 µM
NCI-H460 lung
  GI50: 2.53 µM
  TGI: 6.35 µM
K-562 leukemia
  GI50: 3.04 µM
  TGI: 63.8 µM
UO-31 renal
  GI50: 2.37 µM
  TGI: 6.31 µM
HCT-116 colon
  GI50: 2.35 µM
  TGI: 5.06 µM
SF-295 CNS
  GI50: 3.74 µM
  TGI: 14.1 µM
PC-3 prostate
  GI50: 3.83 µM
  TGI: 10.9 µM
SN12C renal
  GI50: 3.62 µM
  TGI: 19.1 µM
OVCAR-5 ovarian
  GI50: 12.4 µM
  TGI: 29.5 µM
SR leukemia
  GI50: 2.87 µM
  TGI: 13.2 µM
MDA-MB-231 breast
  GI50: 5.34 µM
  TGI: 20.7 µM
SW-620 colon
  GI50: 4.07 µM
  TGI: 14.9 µM
U251 CNS
  GI50: 3.35 µM
  TGI: 12.5 µM
SK-OV-3 ovarian
  GI50: 6.38 µM
  TGI: 27.7 µM
CCRF-CEM leukemia
  GI50: 2.44 µM
  TGI: 9.26 µM
NCI-H226 lung
  GI50: 2.69 µM
  TGI: 6.39 µM
HCC-2998 colon
  GI50: 1.99 µM
  TGI: 3.64 µM
LOX IMVI melanoma
  GI50: 1.44 µM
  TGI: 3.66 µM
SF-539 CNS
  GI50: 4.68 µM
  TGI: 16.9 µM
UACC-62 melanoma
  GI50: 2.48 µM
  TGI: 6.29 µM
SK-MEL-2 melanoma
  GI50: 4.14 µM
  TGI: 17.9 µM
DU-145 prostate
  GI50: 5.24 µM
  TGI: 17.8 µM
HL-60(TB) leukemia
  GI50: 2.84 µM
  TGI: 12.3 µM
786-0 renal
  GI50: 3.22 µM
  TGI: 8.61 µM
NCI-H23 lung
  GI50: 2.82 µM
  TGI: 10.6 µM
HOP-62 NSCLC
  GI50: 3.47 µM
  TGI: 10.5 µM
HT29 colon
  GI50: 3.29 µM
  TGI: 8.54 µM
A498 renal
  GI50: 19.1 µM
  TGI: 35.5 µM
IGROV1 ovarian
  GI50: 6.26 µM
  TGI: 23.3 µM
SNB-75 CNS
  GI50: 17.2 µM
  TGI: 88.8 µM
A549 NSCLC
  GI50: 6.04 µM
  TGI: 25.8 µM
SK-MEL-28 melanoma
  GI50: 2.72 µM
  TGI: 8.02 µM
OVCAR-8 ovarian
  GI50: 4.07 µM
  TGI: 15.3 µM
MOLT-4 leukemia
  GI50: 2.83 µM
  TGI: 13.4 µM
CAKI-1 renal
  GI50: 3.86 µM
  TGI: 13.7 µM
EKVX NSCLC
  GI50: 12.2 µM
  TGI: 30.5 µM
HS 578T breast
  GI50: 23.9 µM
  TGI: > 100 µM
SF-268 CNS
  GI50: 4.37 µM
  TGI: 22.9 µM
ACHN renal
  GI50: 3.17 µM
  TGI: 10.3 µM
MDA-MB-435
  GI50: 2.51 µM
  TGI: 8.26 µM
MALME-3M melanoma
  GI50: 6.71 µM
  TGI: 22.3 µM
